# Test results published in US20240293430A1, “WITHAFERIN A AND IMMUNE CHECKPOINT BLOCKER COMBINATION THERAPIES” (University of South Florida, priority 2023, published 2024).
# Tests used:
# [1] = system: NSCLC cell lines (LLC, H1650, A549); assay: Annexin V apoptosis assay (flow cytometry); format: cell-based, mouse (LLC), human (H1650; conditions: 48 h, compared to untreated cells
# Procedure: FIGS. 1A-lE depict that WFA induces ER stress-mediated apoptosis in NSCLC cell lines. (FIG. 1A) NSCLC cells were plated on 96-well plates and treated with different concentrations of WFA ([…]) in triplicates. Forty-eight hours post-treatment, cell viability was determined using Cell Titer-Glo assay. Luminescence values were normalized to control untreated cells and IC50 values are represented as the mean of two independent experiments ±SEM. (FIG. 1B) NSCLC cells were treated WFA for forty-eight hours, then collected to measure apoptotic cell death using Annexin V assay in LLC cells, H1650 cells, and A549 cells. Percentages of early (annexin*DAPI-) and late (annexin*DAPI+) apoptotic cells are represented as means of two separate experiments ±SEM and statistical significance was calculated using one-way ANOVA and a Fisher LSD post hoc test was used to compare the mean of each group to that of the control group. (FIGS. 1C-1D) WFA treated cells were collected in Trizol and total RNA was isolated to measure the levels of Bax (FIG. 1C) and Bcl2 (FIG. 1D) mRNA using qRT-PCR. PCR experiments were repeated at least twice, and one representative experiment is shown as mean±SEM of the technical replicates. […] The quantification of western blot band density was performed using Image J software v.1.54d and normalized to housekeeping control protein in LLC cells (0-actin). […]
# [2] = system: LLC flank tumors; assay: LLC syngeneic mouse model, tumor growth; format: in vivo, C57BL/6 mice; conditions: i.p. every other day, five treatments; WFA 5 mg/kg, α-PD-L1 200 μg/mouse
# Procedure: FIGS. 5A-5G depict that WFA sensitizes flank tumors to α-PD-L1 therapy and targets immunosuppressive MDSCs and T-regs. (FIG. 5A) Establishment of LLC flank tumors and treatment schedule. (FIG. 5B) Tumor volume measurement in mm^3 and tumor weight at the endpoint of the experiment. (FIG. 5C) Change in the levels of ecto-CRT in tumors was measured using flow cytometry. (FIGS. 5D-5G) Flow cytometry was used to determine the change in immune cell infiltration in collected tumors. […] Moreover, WFA reduced the immunosuppressive T regs (FIG. 5F) and CD11b+Gr1+MDSC (FIG. 5G) populations. The means of two independent experiments ±SEM are shown, and the statistical significance was calculated using one-way ANOVA and a Fisher LSD post hoc test where * and #represent p<0.05 and ** and ##represent p<0.01. * Symbols refer to the difference between the vehicle control and WFA, while #refers to comparisons between the vehicle control and WFA+α-PD-L1 combination.
# C57BL/6 mice were purchased from the Jackson Laboratory (Bar Harbor, ME, USA) and acclimated for a week. To establish the LLC syngeneic tumors, C57BL/6 mice were injected with a half million cells on the right flank and monitored until tumors were first palpable (2-3 mm diameter). […] Tumor volumes (mm^3) were calculated using the equation (length^2 x width/2), where the length is defined as the bigger tumor dimension. […]
structure (smiles),measurement,setting,value
"CC1=C(CO)C(=O)O[C@@H]([C@@H](C)[C@H]2CC[C@H]3[C@@H]4C[C@H]5O[C@]56[C@@H](O)C=CC(=O)[C@]6(C)[C@H]4CC[C@]23C)C1 [WFA, Withaferin A]",early and late apoptotic cell populations,[1],significant increase
same,tumor size / tumor growth,[2],non-significant reduction
